The source of these data is US5773424A, “Treatment of toxoplasmosis” (priority 1994, dated 1998).

The target in the first assay is T. gondii adenosine kinase (Toxoplasma gondii, UniProt Q9TVW2). Kind of assay: biochemical.
T. gondii adenosine kinase, sequence (Q9TVW2 whole entry): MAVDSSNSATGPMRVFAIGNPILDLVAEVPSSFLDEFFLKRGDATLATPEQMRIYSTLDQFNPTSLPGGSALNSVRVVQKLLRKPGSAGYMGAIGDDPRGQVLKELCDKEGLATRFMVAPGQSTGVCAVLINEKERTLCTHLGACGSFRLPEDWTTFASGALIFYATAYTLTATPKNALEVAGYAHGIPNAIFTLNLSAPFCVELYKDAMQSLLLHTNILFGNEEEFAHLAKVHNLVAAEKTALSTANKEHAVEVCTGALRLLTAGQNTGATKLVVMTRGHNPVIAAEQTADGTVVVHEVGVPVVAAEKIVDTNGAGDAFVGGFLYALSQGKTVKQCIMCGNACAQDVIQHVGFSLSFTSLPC
Conditions: not given
The procedure: Preparation of cytosol extracts. For the structure activity relationships studies, approximately 5×10^8 T. gondii were suspended in 1.2 ml of 50 mM N-2-hydroxyethylpiperazine-N'-2-ethanesulfonic acid (HEPES)-Cl (pH 8.0)/1 mM dithiothreitol and homogenized for 30 seconds at setting 10, using a Brinnmann Instruments Polytron homogenizer fitted with a PTA 7K1 probe. The homogenate was then centrifuged at approximately 116,000 g for 1 hour at 5° and the supernatant (cytosol extract) collected and used as the enzyme source. Fresh cytosol extracts were prepared for each experiment.
Adenosine kinase assay. T. gondii adenosine kinase activity was measured by following the formation of [^14 C]AMP from [^14 C]adenosine and ATP. […] Therefore, the standard reaction mixture contained 50 mM HEPES-Cl (pH 8.0), 1 mM dithiothreitol, 5 μM [8-^14 C]adenosine (45 Ci/mol), 0.5 mM ATP, 0.5 mM MgCl2, 25 μM (+)-EHNA or 100 μM (±)-EHNA,10-30 μl of cytosol extract (approximately 3-10 μg of protein), and either 0, 0.1, 0.25, 0.5 or 1.0 mM of the compound to be tested, in a final volume of 150 μl.
Reactions were started by the addition of [8-^14 C]adenosine, incubated at 37° for 10 minutes and terminated by placing the reaction tubes in a boiling water bath for 2 minutes. Precipitated proteins were removed by centrifugation in a microcentrifuge (approximately 13,000 g) for 5 minutes, and a 15 μl aliquot of the resulting supernatant was mixed with 5 μl of a solution containing 10 mM each of AMP and adenosine. This mixture was then spotted on silica gel thin layer chromatography plates which were developed with a mixture of chloroform/methanol/acetic acid (16:3:1). […] The substrate and product spots (which accounted for all of the radioactivity on the plates) were identified by UV quenching, cut out, and the radioactivity quantitated by liquid scintillation counting in 20 ml of Scintilene, using a Packard 460 scintillation counter. […] Enzyme velocity was calculated by multiplying the fraction of AMP formed from adenosine times the amount of adenosine in the assay, and dividing by the incubation time.
Determination and significance of AppKi values. AppKi values were used to determine the relative degree of binding of compounds to adenosine kinase as compared to adenosine. AppKi values were estimated from Dixon plots of the data (1/.nu. versus [I]), using a computer program with least squares fitting according to the general principles of Cleland (Cleland, W W, The statistical analysis of enzyme kinetic data. Adv. Enzymol. 29:1-32, 1967). The program was written by Dr. Sungman Cha (Brown University, Providence, R.I.) and modified to fit IBM BASIC by Dr. Fardos N. M. Naguib. […] It should be noted, however, that the type of inhibition (i.e., competitive, noncompetitive, or uncompetitive) produced by the compounds was not determined, nor were the compounds evaluated as substrates for T. gondii adenosine kinase.
For the compound `OC[C@H]1O[C@@H](n2ccc3c(Cl)ncnc32)[C@H](O)[C@@H]1O` [Compound 68], the Ki was 72 ± 12 µM.
On the same count and under the same terms, to `NNc1ncnc2c1ccn2[C@@H]1O[C@H](CO)[C@@H](O)[C@H]1O` [Compound 69, 6-Hydrazino-7-deazapurine riboside] belongs 180 ± 10 µM.
On the same count and under the same terms, to `OC[C@H]1O[C@@H](n2cc(Br)c3c(NO)ncnc32)[C@H](O)[C@@H]1O` [Compound 70, N^6 -Hydroxy-7-bromo-7-deazaadenosine] belongs 37 ± 9 µM; to `CNc1ncnc2c1c(C(N)=S)cn2[C@@H]1O[C@H](CO)[C@@H](O)[C@H]1O` [Compound 71, N^6 -Methyl-7-thiocarboxyamido-7-deazaadenosine], 150 ± 1 µM.
On the same count and under the same terms, to `Nc1ncnc2c1cnn2[C@@H]1O[C@H](CO)[C@@H](O)[C@H]1O` [Compound 72, 8-Aza-7-deazaadenosine] belongs 1700 µM; to `NC(=NO)c1c(Br)n([C@@H]2O[C@H](CO)[C@@H](O)[C@H]2O)c2ncnc(N)c12` [Compound 73, 8-Bromo-7-carboxyamidoxime-7-deazaadenosine], 210 ± 30 µM; to `NNc1c(C(N)=O)c2c(N)ncnc2n1[C@@H]1O[C@H](CO)[C@@H](O)[C@H]1O` [Compound 74, 8-Hydrazino-7-carboxamido-7-deazaadenosine (6-Hydrazinosangivamycin)], 160 ± 9 µM.
Take `OC[C@H]1O[C@@H](n2ncc3cncnc32)[C@H](O)[C@@H]1O` [Compound 75, 8-Aza-7-deazapurine riboside]: the Ki was 5100 µM.
On the same count and under the same terms, to `CCSc1ncnc2c1cnn2[C@@H]1O[C@H](CO)[C@@H](O)[C@H]1O` [Compound 76, 8-Aza-6-ethylmercapto-7-deazapurine riboside] belongs 210 ± 100 µM; to `O=c1[nH]cnc2c1cnn2[C@@H]1O[C@H](CO)[C@@H](O)[C@H]1O` [Compound 77, 8-Aza-6-hydroxy-7-deazapurine riboside (allopurinol)], 15000 µM; to `CSc1ncnc2c1cnn2[C@@H]1O[C@H](CO)[C@@H](O)[C@H]1O` [Compound 79, 8-Aza-6-methylmercapto-7-deazapurine riboside], 140 ± 30 µM.
The same measure, in the same setting: to `NC(=O)c1cn([C@@H]2O[C@H](CO)[C@@H](O)[C@H]2O)c2nc[n+]([O-])c(N)c12` [Compound 80, 7-Carboxamido-7-deazaadenosine-N^1-oxide] belongs 780 ± 70 µM; to `O=c1[nH]cnc2c([C@@H]3O[C@H](CO)[C@@H](O)[C@H]3O)n[nH]c12` [Compound 82, 8-Aza-9-deazainosine (formycin B)], 3100 µM; to `CSc1ncnc2c1nnn2[C@@H]1O[C@H](CO)[C@@H](O)[C@H]1O` [Compound 83, 8-Aza-6-methylmercaptopurine riboside], 130 ± 40 µM.
Still for that read-out and setting: to `OC[C@H]1O[C@@H](n2cnc3c2N=CNC[C@H]3O)[C@H](O)[C@@H]1O` [Compound 85, Coformycin] belongs 2000 µM.
`Nc1ncnc2c1ncn2[C@@H]1O[C@H](CO)[C@@H](O)[C@@H]1O` [Compound 86, Adenine arabinoside (ara-A)] had a Ki of 3000 µM.
The same measure, in the same setting: to `Nc1ncnc2c1ncn2[C@H]1C[C@H](O)[C@@H](CO)O1` [Compound 87, 2'-Deoxyadenosine] belongs 4200 µM; to `Nc1ncnc2c1ncn2[C@@H]1O[C@H](CO)C[C@H]1O` [Compound 90, 3'-Deoxyadenosine (Cordycepin)], 1100 µM.
Same read-out and setting: to `Nc1ncnc2c1ncn2[C@@H]1O[C@H](CO)[C@H](O)[C@H]1O` [Compound 92, Adenine xyloside] belongs 1400 µM.
Same read-out and setting: to `C[C@H]1O[C@@H](n2cnc3c(N)ncnc32)[C@H](O)[C@@H]1O` [Compound 93, 5'-Deoxyadenosine] belongs 40 ± 3 µM.
Take `Nc1ncnc2c1ncn2[C@@H]1O[C@H](CCl)[C@@H](O)[C@H]1O` [Compound 95, 5'-Chloro-5'-deoxyadenosine]: the Ki was 210 ± 10 µM.
Still for that read-out and setting: to `CSC[C@H]1O[C@@H](n2cnc3c(N)ncnc32)[C@H](O)[C@@H]1O` [Compound 98, 5'-Methylthio-5'-deoxyadenosine] belongs 530 ± 230 µM; to `Nc1ncnc2c1ncn2[C@@H]1O[C@H](C(=O)O)[C@@H](O)[C@H]1O` [Compound 99, adenosine 5'-Carboxylic acid (5'-Carboxyladenosine)], 1100 µM; to `Nc1ncnc2c1ncn2[C@@H]1O[C@H](COC(=O)CCC(=O)O)[C@@H](O)[C@H]1O` [Compound 100, 5'-Succinyladenosine (adenosine 5'-succinate)], 920 ± 600 µM.
The same measure, in the same setting: to `CC(C)CC[C@H]1O[C@@H](n2cnc3c(N)ncnc32)[C@H](O)[C@@H]1O` [Compound 101, 5'-Isobutyl-5'-deoxyadenosine] belongs 410 ± 90 µM; to `Nc1ncnc2c1ncn2[C@H]1CC[C@@H](CO)O1` [Compound 106, 2',3'-Dideoxyadenosine], 5500 µM.

Still in this assay, the particulars now being: AppKi for inhibition of T. gondii adenosine kinase, 5 μM adenosine; ± range, at least two estimations.
`OC[C@H]1O[C@@H](n2cnc3c(NC4CCCC4)nc(Cl)nc32)[C@H](O)[C@@H]1O` [Compound 66]: the Ki is 390 ± 90 µM.
On the same count and under the same terms, to `Nc1ncnc2c1ncn2[C@@H]1O[C@H](CI)[C@@H](O)[C@H]1O` [Compound 96, 5'-Iodo-5'-deoxyadenosine] belongs 230 ± 10 µM; to `Nc1ncnc2c1ncn2[C@@H]1O[C@H](COS(=O)(=O)O)[C@@H](O)[C@H]1O` [Compound 97, 5'-Sufonyl adenosine (adenosine 5'-monosulfate)], 210 ± 60 µM.
Still for that read-out and setting: to `Nc1ncnc2c1ncn2[C@@H]1O[C@H](C(=O)NC2CC2)[C@@H](O)[C@H]1O` [Compound 104, 5'-N-(Cyclopropyl)carboxamidoadenosine] belongs 1100 µM; to `Nc1ncnc2c1ncn2[C@@H]1O[C@H](COC(=O)c2ccc(S(=O)(=O)F)cc2)[C@@H](O)[C@H]1O` [Compound 105, 5'-(p-Fluorosulfonylbenzoyl)adenosine], 340 ± 40 µM.

The assay is the same for the next values; noted with them: read-out: AppKi for inhibition of T. gondii adenosine kinase; 5 μM adenosine; ± range, at least two estimations.
`Nc1ncnc2c1ncn2C1O[C@H](CO)[C@H](O)[C@@H]1O` (stereo partly drawn) [Compound 107, Adenine lyxoside]: the Ki is 1300 µM.

Staying with this assay, now noted: read-out: Inhibition of T. gondii adenosine kinase.
With `Nc1nc2c(ncn2[C@@H]2O[C@H](CO)[C@@H](O)[C@H]2O)c(=O)[nH]1` [Compound 64], the inhibition at 1000 µM is less than 10%.
Same read-out and setting: to `O=c1[nH]c(=O)c2ncn([C@@H]3O[C@H](CO)[C@@H](O)[C@H]3O)c2[nH]1` [Compound 67] belongs less than 10%; to `OC[C@H]1O[C@@H](n2ncc3c(=S)[nH]cnc32)[C@H](O)[C@@H]1O` [Compound 78, 8-Aza-6-mercapto-7-deazapurine riboside], less than 10%; to `OC[C@H]1O[C@@H](n2cnc3ccccc32)[C@H](O)[C@@H]1O` [Compound 84, Benzimidazole riboside ("1,3-dideazapurine riboside")], less than 10%.
On the same count and under the same terms, to `CO[C@@H]1[C@H](O)[C@@H](CO)O[C@H]1n1cnc2c(N)ncnc21` [Compound 88, 2'-O-Methyladenosine] belongs less than 10%; to `Cc1ccc(S(=O)(=O)O[C@@H]2[C@H](O)[C@@H](CO)O[C@H]2n2cnc3c(N)ncnc32)cc1` [Compound 89, 2'Tosyladenosine], less than 10%; to `CO[C@H]1[C@@H](O)[C@H](n2cnc3c(N)ncnc32)O[C@@H]1CO` [Compound 91, 3'-O-Methyladenosine], less than 10%.
Same read-out and setting: to `CNC(=O)[C@H]1O[C@@H](n2cnc3c(N)ncnc32)[C@H](O)[C@@H]1O` [Compound 102, 5'-N-(Methyl)carboxamidoadenosine] belongs less than 10%; to `CCNC(=O)[C@H]1O[C@@H](n2cnc3c(N)ncnc32)[C@H](O)[C@@H]1O` [Compound 103, 5'-N-(Ethyl)carboxamidoadenosine], less than 10%.

The assay is the same for the next values; noted with them: relative to adenosine.
Turning to `CO[C@@H]1[C@H](O)[C@@H](CO)O[C@H]1n1cnc2c(N)ncnc21` [Compound 88, 2'-O-Methyladenosine], the “Effect on binding to T. gondii adenosine kinase, in words” value is “abolishes”.
As to `CO[C@H]1[C@@H](O)[C@H](n2cnc3c(N)ncnc32)O[C@@H]1CO` [Compound 91, 3'-O-Methyladenosine], the “Effect on binding to T. gondii adenosine kinase, in words” value is reported as “abolishes”.

The assay is the same for the next values; noted with them: relative to reference compound adenosine.
Consider `Nc1ncnc2c1ncn2[C@@H]1O[C@H](CO)[C@@H](O)[C@@H]1O` [Compound 86, Adenine arabinoside (ara-A)], for which the “Decrease in binding to T. gondii adenosine kinase” value was found to be 430 fold.
Consider `Nc1ncnc2c1ncn2[C@H]1C[C@H](O)[C@@H](CO)O1` [Compound 87, 2'-Deoxyadenosine], for which the “Decrease in binding to T. gondii adenosine kinase” value amounted to 600 fold.
Still for that read-out and setting: to `Nc1ncnc2c1ncn2[C@@H]1O[C@H](CO)[C@H](O)[C@H]1O` [Compound 92, Adenine xyloside] belongs 200 fold; to `C[C@H]1O[C@@H](n2cnc3c(N)ncnc32)[C@H](O)[C@@H]1O` [Compound 93, 5'-Deoxyadenosine], 5.7 fold; to `Nc1ncnc2c1ncn2C1O[C@H](CO)[C@H](O)[C@@H]1O` (stereo partly drawn) [Compound 107, Adenine lyxoside], 190 fold.
